One series concerns C8161 subcutaneous tumor. The series can be described thus: C8161 melanoma xenograft in nude mice. The series is classed as in vivo. Here is the method:
Kinase Profiler Screening: Kinase specificity screening was performed with Invitrogen's SelectScreen® Kinase Profiling Services http://www.invitrogen.com/site/us/en/home/Products-and-Services/Services/Discoverv-Research/SelectScreen-Profiling-Service/SelectScreen-Kinase-Profiling-Service.html. The screening was performed with 1 μM compound, INT2-31, 10 μM ATP, and kinase substrates against ten recombinant kinases according to Z′-LYTET™ Kinase Assay. For PI3 kinase activity, 100 μM ATP, and kinase substrate were utilized with the Invitrogen Adapta® Universal Kinase Assay protocol. Tumor Growth in Nude Mice in vivo: Six week old athymic, female nude mice were purchased from Harlan Laboratory. The mice were maintained in the animal facility, and all experiments were performed in compliance with NIH animal-use guidelines and under an IACUC approved protocol. Melanoma cells were injected, 5×10^6 cells, subcutaneously. When the tumor size reached 100 mm^3, the INT2-31 was introduced by intraperitoneal injection at a dose of 15 mg/kg daily for 21 days. Tumor diameters were measured with calipers, and tumor volume in mm^3 was calculated using the formula [(width)^2×length]/2. At the end of experiment, tumor weight and volume were determined.
For the melanoma study, the University of Florida IACUC approved the following protocol (IACUC Study #200801077). Melanoma cells were injected, 5×10^6 cells, subcutaneously. When the tumor size reached 100 mm^3, the INT2-31 was introduced by intraperitoneal injection at a dose of 15 mg/kg daily. Tumor diameters were measured with calipers, and tumor volume in mm^3 was calculated using the formula [(width)^2×length]/2. At the end of experiment, tumor weight and volume were determined.
Immunohistochemistry: Xenograft tumor tissue was fixed in 10% formalin and embedded in paraffin. For Ki-67 staining, samples underwent deparaffinization and antigen retrieval and incubated with the primary antibody, Ki-67 (Dako M7240), at 1:200 concentration overnight at 4° C. The tissues were stained with the chromogen DAB and counterstained with hematoxylin and 1% TBS.
For assessment of apoptotic cells, staining was performed utilizing the Dead End™ Calorimetric TUNEL System (Promega, Madison, Wis.) according to instructions from the manufacturer. Percent apoptotic cells were determined from counting at least 400 cells in a high power field.

Series [1] concerns TE9 esophageal cancer cells. Briefly: Cell viability (MTT), TE9. Type of series: cell-based. The settings on record: TE9, 72 hours; read-out: IC50 of INT2-31, cell viability. On the procedure: (§1) Cell viability (MTT) and CFSE Proliferation assay: Cells were plated in 96-well plates and let adhere overnight. After cell treatment, cell viability was measured by 3-(4,5-dimethylthiazol-2-yl)-2,5-diphenyl tetrazolium bromide (MTT) assay (CellTiter 96® Aqueous, Promega, Madison, Wis.).
Cell viability and detachment assays: After cells were treated with siRNA transfection, cell viability was measured by 3-(4,5-dimethylthiazol2-yl)-2,5-diphenyl tetrazolium bromide (MTT) assay (CellTiter 96® AQueous, Promega, Madison, Wis.). Briefly, 20 μl of the tetrazolium compound was added to each well. The cells were then incubated at 37° C. for 1 h. The plate was read at 490 nm with a plate reader to determine the viability. In detachment assays, detached and attached cells were harvested separately and counted in a hemocytometer. The percentage of detachment was calculated by dividing the number of detached cells by the total number of cells. Apoptosis assays: After treatment, attached and detached cells were collected, counted and prepared for terminal uridine deoxynucleotidyl transferase (TUNEL) assay by utilizing an APO-BRDU kit (BD Pharmingen, San Diego, Calif.) according to the manufacturer's instructions. Stained cells were analyzed with a fluorescence-activated cell sorting-Calibur flow cytometer (BD Biosciences). […] Apoptotic cells were also analyzed by Hoechst staining. […]

The next series deals with IGF-1R+/+ and −/− MEFs. The series can be described thus: MTT assay on IGF-1R wildtype and null fibroblasts. The series is classed as cell-based, mouse. On the procedure: as §1
Cell proliferation assay: Cell proliferation assay (Promega) using CellTiter 96 aqueous one solution was performed by adding a small amount of the One Solution Reagent directly to culture wells, incubating for 1-4 hours and then recording absorbance at 490 nm with a spectrophotometric plate reader. The quantity of formazan product as measured by the amount of 490 nm absorbance was directly proportional to the number of living cells in culture.
Cell viability and detachment assays: After cells were treated with siRNA transfection, cell viability was measured by 3-(4,5-dimethylthiazol2-yl)-2,5-diphenyl tetrazolium bromide (MTT) assay (CellTiter 96® AQueous, Promega, Madison, Wis.). Briefly, 20 μl of the tetrazolium compound was added to each well. The cells were then incubated at 37° C. for 1 h. The plate was read at 490 nm with a plate reader to determine the viability. In detachment assays, detached and attached cells were harvested separately and counted in a hemocytometer. The percentage of detachment was calculated by dividing the number of detached cells by the total number of cells. Apoptosis assays: After treatment, attached and detached cells were collected, counted and prepared for terminal uridine deoxynucleotidyl transferase (TUNEL) assay by utilizing an APO-BRDU kit (BD Pharmingen, San Diego, Calif.) according to the manufacturer's instructions. Stained cells were analyzed with a fluorescence-activated cell sorting-Calibur flow cytometer (BD Biosciences). Calculation of the percentage of apoptotic cells in the sample was completed with CellQuest software (BD Biosciences). Apoptotic cells were also analyzed by Hoechst staining. Hoechst 33342 ([…]) was added to the fixed cells and the specimens were mounted on glass coverslips. The slides were viewed under the Zeiss microscope for apoptotic nuclei. The percent of apoptotic cells was calculated as the ratio of apoptotic cells to total number of cells.
Background: Formazan colour is commonly taken as a measure of viable cells.

As a reminder, the IC50 is the concentration at which inhibition is half-maximal. Consider `CSc1ncnc2c1ccn2C1O[C@H](COP(=O)(O)O)[C@@H](O)[C@H]1O` (stereo partly drawn) [INT2-31, 4-(Methylthio)-7-(5-O-phosphono-D-ribofuranosyl)-{7H-Pyrrolo[2,3-d]pyrimidine}], for which the “phosphorylation of AKT in tumor” value with C8161 subcutaneous tumor (15 mg/kg vs PBS control, Western blot) is recorded as “decrease in phosphorylation of AKT”. Also, in the series on C8161 subcutaneous tumor (C8161, 15 mg/kg daily intraperitoneal, 21 days, p<0.05), the “subcutaneous tumor growth compared to PBS control” value is “significant decrease”. Moreover, in the series on C8161 subcutaneous tumor (C8161 and A375 xenograft mice, 15 mg/kg), the “body weights between animals in each group” value is reported as “no significant difference”. In the series with C8161 subcutaneous tumor (C8161 tumors, 15 mg/kg vs PBS), the “intensity of Ki67 staining” value was “significantly decreased” and the “percent of cells reactive to Ki67” value is “significantly decreased”. Besides, the “percent of cells undergoing apoptosis (TUNEL)” value in the series on C8161 subcutaneous tumor (C8161 tumors, 15 mg/kg vs control, p<0.05) is “significantly increased”. Also, the “densitometry, mean ratio of IGF-1R to FAK in tumor” value in the series on C8161 subcutaneous tumor (C8161 tumors, immunoprecipitation of FAK, PBS 0.98+/−0.11, p=0.09) is given as 0.78+/−0.16. The IC50 in series [1] turned out to be 3.6 µM. In the series on IGF-1R+/+ and −/− MEFs (0.05 μM, 72-hour treatment), the “proliferation of IGF-1R+/+ fibroblast cells” value was “reduced the proliferation” and the “proliferation of IGF-1R−/− cells” value was “no effect”. For the same compound, the “effect on IGF-1R wildtype compared to null fibroblasts” value in the series with IGF-1R+/+ and −/− MEFs (MTT, p<0.05) is recorded as “significantly less sensitive”.

The values above are taken from patent US20120107323A1, “KINASE PROTEIN BINDING INHIBITORS” (University of Florida, priority 2009, published 2012).
